{
  "source": "ChEMBL document CHEMBL3881531",
  "about": "“ANT2 inhibitor compounds and methods of use thereof” (2009)",
  "key": {"[1]": {"biological_target": "T1, ADP/ATP translocase 2 (Homo sapiens) (UniProt P05141)", "T1 sequence (whole entry)": "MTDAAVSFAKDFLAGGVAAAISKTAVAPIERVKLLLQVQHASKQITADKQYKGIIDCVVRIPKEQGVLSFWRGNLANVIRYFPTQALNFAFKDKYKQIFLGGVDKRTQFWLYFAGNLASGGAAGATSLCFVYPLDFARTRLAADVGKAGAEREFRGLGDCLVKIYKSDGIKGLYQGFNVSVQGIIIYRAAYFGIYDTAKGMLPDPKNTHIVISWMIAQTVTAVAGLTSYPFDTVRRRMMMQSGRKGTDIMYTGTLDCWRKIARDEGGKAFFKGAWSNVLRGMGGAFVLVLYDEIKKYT", "assay": "Inhibition of ANT2 in human HeLa cells assessed as growth inhibition at 50 uM incubated for 5 days by crystal violet staining based assay", "format": "cell-based"}, "[2]": {"biological_target": "T1, ADP/ATP translocase 2 (Homo sapiens)", "assay": "Inhibition of ANT2 in human HeLa cells assessed as cell survival at 50 uM incubated for 5 days by crystal violet staining based assay"}, "[3]": {"assay": "Cytotoxicity against mouse NIH/3T3 cells assessed as cell survival at 50 uM incubated for 5 days by crystal violet staining based assay", "design": "species or system NIH3T3", "details": "read-out: Survival"}},
  "data": [
    {"smiles": "O=C(CC(=O)C1C(=O)c2ccccc2C1=O)c1ccccc1", "values": [
      {"measurement": "growth inhibition (GI)", "setting": "[1]", "value": 84, "unit": "%"}
    ]},
    {"smiles": "CC(C)CC(=O)C1C(=O)c2ccccc2C1=O", "values": [
      {"measurement": "growth inhibition (GI)", "setting": "[1]", "value": 79, "unit": "%"},
      {"measurement": "Survival", "setting": "[2]", "value": 5, "unit": "%"},
      {"measurement": "viability at 120 h, 50 µM", "setting": "[3]", "value": 40, "unit": "%"}
    ]}
  ]
}
